Data set [1] has as its system aromatase cells in the amygdala. The data set is described as follows: Patch clamping of aromatase cells in the amygdala in brain slices of treated mice. The data set is classed as in vivo, mouse. From the text: After behaviour studies, the animals were sacrificed and electrophysiological data were gathered from the brain slices by patch clamping of aromatase cells in the amygdala.
A general note: The patch-clamp technique gives a direct electrical read-out from membranes.

The test system of data set [2] is differentiated mouse motor neuronal NSC-34 cells. The data set is described as follows: Protection of NSC-34 cells from toxic BPA exposure, MTT assay. The class given is cell-based. The settings on record: 1 mM compound, 500 ng/ml of BPA, MTT assay 72 hours later. The method, then:
To compare the respective activities of trans and cis 10-HDA 1 mM respectively of cis or trans 10-HDA in the presence of 500 ng/ml of BPA (toxic level) was added to differentiated mouse motor neuronal NSC-34 cells. Cell survival was determined by MTT assay 72 hours later.
For orientation: Tetrazolium assays rely on reduction of a dye to a coloured formazan, in cell work by metabolically active cells.

Another data set deals with aromatase. The data set is described as follows: Aromatase immunohistochemistry in human neuroblastoma SH-SY5Y cells exposed to BPA with or without 10-HDA. The conditions noted are these: for effect on BPA-induced changes of aromatase expression pattern and neurites: 25 μg/L BPA + 1 mM 10 HDA. The data set is classed as cell-based. The procedure: FIG. 1: Effects of BPA and 10-HDA on aromatase expression in human neuroblastoma SH-SY5Y cells. Under normal conditions, SH-SY5Y cells express aromatase which is a membrane bound protein in endoplasmic reticulum, and appears as green punctate staining eventually distributed within the cell by immunohistochemistry. In the presence of 25 μg/L bisphenol A the aromatase became aggregates. The effects of bisphenol A can be ameliorated by addition of 10HDA. (a) +0 μg/L BPA (Vehicle)—Clear staining of aromatase (green) evenly distributed in the cytoplasm and along the neurites, as tiny “dots”. A lot of healthy cells evenly distributed over the surface area of the coverslip. B-tubulin (red) is highly expressed throughout the cytoplasm and neurites. […] A decrease in 13-tubulin expression was also observed in most cells that have lost their neurites. […] (c) +25 μg/L BPA+1 mM 10 HDA—Good neurite growth and even aromatase distribution throughout the cytoplasm was observed.
Human neuroblastoma SHY-SY-5Y cells were cultured were cultured in Dulbecco's Modified Eagle Medium supplemented with 10% heat-inactivated Fetal Bovine Serum, 1% penicillin and 1% L-Glutamine at 37° C. in a humidified atmosphere of 95% air and 5% CO2. The localization of aromatase in these cells can be detected using immunohistochemistry with antibody specific to aromatase. Under normal conditions, aromatase appears as punctuate staining throughout the cells, as it is a membrane bound protein in the endoplasmic reticulum.

Data set [3] has as its system neurons in the somatosensory cortex. Description: Dendritic length of neurons in the somatosensory cortex of treated mice. The class given is in vivo, mouse. The conditions noted are these: BPA exposed mice with 10-HDA treatment.
The next data set has as its system BPA exposed mice. The data set is described as follows: 10-HDA treatment of BPA exposed mice: social interaction and spontaneous grooming. The class given is in vivo, mouse. The procedure: As described in Example 2, mice with autistic-like behaviour were generated by mating female wild type FVBN mice with male CYP19-GFP mice and followed by subcutaneous injection of 50 […] of BPA on gestational days 10.5 to 14.5.
After weaning, control and BPA exposed pups were administered 10-HDA daily (0 and 500 μg/kg/day; dissolved in saline) by intraperitoneal injection for a maximum period of 6 weeks. Six litters were initially studied after 3 weeks of daily treatment for anxiety, memory, social interaction (FIG. 4A) and spontaneous grooming.
Data collection was conducted by investigators who were blind to the respective genotypes or treatment of any given animal. Two criteria were assessed as the basis for the behavioural studies, social interaction, and spontaneous grooming activity.
(§1) With regard to the social interaction study, the test mouse was placed in a social test box, a three-chambered clear plastic box with doorways in the dividing walls to allow access into each chamber. Each side-chamber contained a wire cage. The test mouse was evaluated over three sessions. In session 1, the test mouse was placed in the middle chamber and allowed to explore all 3 chambers for 10 min. In session 2, an unfamiliar same sex and age mouse (stranger 1) was enclosed in the wire cage either side of the central chamber, and the test mouse was allowed to explore the entire social test box for a period of 10 min. In session 3, a new unfamiliar mouse was placed in the previously empty wire cage such that the test mouse has a choice between the first, now familiar, already-investigated mouse (stranger 1) and the novel unfamiliar mouse (stranger 2). Mouse movements were recorded and tracked using the TopScan video tracking system. Durations in each chamber, time spent sniffing each wire cage, and the number of transitions between chambers were analysed.
Spontaneous Grooming activity was used as a measure of repetitive activity. The spontaneous grooming of the mice were recorded by the TopScan video tracking system during the session 1 or the 3 chamber studies described above. The duration and frequency of grooming were the parameters of measurements and analysed blind.
The male animals were then re-administered with either vehicle or 10-HDA as described above for 3 weeks, and subjected to behavioural studies again (FIG. 4C).

The subject of the next data set is primary cortical culture. Description: Primary cortical cell cultures of male mouse embryonic foetuses: dendritic length and spine densities. The data set is classed as cell-based. The procedure:
Primary cortical culture was prepared from male mouse foetuses at embryonic day 15.5. Specifically, the effects of BPA and 10-HDA on dendritic length and spine densities were assessed. Four test groups were assessed, mice treated with BPA, mice treated with 10-HDA, mice treated with BPA and 10-HDA, and a vehicle control. Ten neurons were measured and the experiments were duplicated.

The next data set relates to mice. Description: In utero BPA exposure of mice: offspring social interaction and stereology neuron counts. The data set is classed as in vivo, mouse. The method, then: BPA (50 μg/kg) was thus administered to pregnant mice mid-gestation (i.e. embryonic days 10.5 to 14.5). […] A further study was conducted to examine the effects of BPA exposure on numbers of aromatase-GFP positive neurons in utero (FIG. 3). The medial amygdala is involved in social interaction and highly expressed aromatase.
as §1

Setting [4] is: BPA, male mouse embryonic day 15.5 cortical neurons.

“Also recorded” adds a separate entry of the source.

Three molecules from patent publication US10933043B2, “Methods of treating neurodevelopmental diseases and disorders” (Deakin University, priority 2014, dated 2021) can be followed below.

Regarding `O=C(O)/C=C/CCCCCCCO` [10-HDA, 10-hydroxy-2-decenoic acid], the “resistance of the neurons” value in data set [1] (BPA exposed mice with 10-HDA treatment) is listed as “restored resistance to normal”. The “cell survival (protection against BPA toxicity)” value in data set [2] is “exhibits neuroprotective effects”. The “effect on BPA-induced changes of aromatase expression pattern and neurites” value with aromatase (SH-SY5Y cells) was “can protect against the denaturing effect of bisphenol A on aromatase”; in the data set on aromatase (SH-SY5Y cells, listed as 10HDA) it was “ameliorates the effects of BPA on the expression pattern of aromatase and neurites”. For the same molecule, the “dendritic length of the neurons” value in data set [3] is listed as “restored the dendritic length of the neurons in the somatosensory cortex to normal length”. Further, the “social interaction deficit and autistic-like behaviour” value with BPA exposed mice (BPA exposed animals, 10-HDA 500 μg/kg/day intraperitoneal daily, 3 weeks) was “could ameliorate the social interaction deficit and autistic-like behaviour”. Further, the excessive grooming entry in the data set on BPA exposed mice (BPA exposed male offspring, 10-HDA treatment 3 weeks) was “ameliorated”. For the same molecule, the “social interaction after treatment withdrawal” value in the data set on BPA exposed mice (BPA-exposed male animals, treatments withdrawn for 3 months) is listed as “withdrawal led to presentation of social interaction deficit”. Besides, in the data set on primary cortical culture (BPA and 10-HDA), the “effect against BPA on spine density and dendritic length” value is “reverse or protect against the effect of BPA”. The “neurites and spines formation” value in the data set with primary cortical culture (primary cortical culture) is “has the capacity to stimulate neurites and spines formation”.
With `CC(C)(c1ccc(O)cc1)c1ccc(O)cc1` [BPA, bisphenol A], the ASD-like behaviours result with mice (BPA 50 μg/kg to pregnant mice embryonic days 10.5 to 14.5, WT male offspring) is “exhibit ASD-like behaviours”. Moreover, the “time spent with the stranger mice (social interaction)” value in the data set with mice (BPA 50 μg/kg to pregnant mice embryonic days 10.5 to 14.5, male offspring vs vehicle exposed male or BPA exposed female offspring) is recorded as “significantly less time”. The “numbers of aromatase-GFP positive neurons” value with mice (BPA exposure in utero, standard Stereology method) is given as “significantly reduced”. Moreover, the “fewer neurons in the medial amygdala” value in the data set on mice (male offspring exposed to BPA) was 13.5%. Also, the “resistance of the neurons” value in data set [1] (BPA exposure, patch clamping of brain slices) is “reduced the resistance of the neurons”. In addition, the neurites result in the data set with aromatase (25 μg/L BPA, SH-SY5Y cells) is on record as “Some populations of cells are starting to lose their neurites”. In addition, the β-tubulin expression entry with aromatase (25 μg/L BPA, SH-SY5Y cells that have lost their neurites) is listed as “decrease”. Besides, in the data set with aromatase (25 μg/L BPA, SH-SY5Y cells, immunohistochemistry), the aromatase localization/staining pattern result is “aromatase forms aggregate and will lose its function; also recorded: could denature aromatase in vitro; also recorded: Aromatase aggregates start to form”. The grooming result in the data set on BPA exposed mice (50 μg/kg/day of BPA exposed male offspring) was “excessive grooming”. Further, in the data set on primary cortical culture (setting [4]), the “dendritic length of neurons” value was “decreased” and the spine density entry is “decreased”.
On to `O=C(O)/C=C\CCCCCCCO` [cis 10-HDA], for which the “cell survival (protection against BPA toxicity)” value in data set [2] is reported as “does not protect against BP toxicity”.
